Assays:
[1] = tested on: Jurkat.MAIT cells; test: Activation of Jurkat.MAIT cells (CD69) with C1R antigen presenting cells expressing MR1; assay type: cell-based, human
Method: Jurkat cells transduced with a MAIT TCR comprising the TRAV1-2+TRAJ33 invariant α chain, and a TRBV6-1 β chain were tested for activation by addition of Salmonella supernatant to C1R antigen presenting cells expressing MR1 for 16 hours. Jurkat.MAIT cells were subsequently stained with PE-conjugated anti-CD3, and APC-conjugated anti-CD69 antibodies before analysis by flow cytometry. Activation of Jurkat.MAIT cells was measured by an increase in surface CD69 expression. Compounds to be tested for the ability to activate Jurkat.MAIT cells were tested alongside Salmonella supernatant.
A biological assay for the activation of MAIT T cell receptor (TCR)-expressing T cell lines (into which genes encoding the MAIT TCR alpha and beta chains had been introduced), by antigen presenting cells (expressing MR1 on the cell surface) infected with the bacterium Salmonella typhimurium has been established. This assay measures the increase in expression of the cell surface activation marker, CD69, upon activation of MAIT T cells.

[2] = target: T1, MR1 (Homo sapiens, UniProt Q95460); test: Refolding of denatured MR1 and β2m with ligands; assay type: binding; settings: substance added to MR1/β2m refold
T1 construct: soluble human MR1 (residues 1-270 of the mature, leaderless protein); made in house
Method: Genes encoding soluble human MR1 (residues 1-270 of the mature, leaderless protein, lacking the transmembrane and cytoplasmic domains); or human β2m (mature, leaderless protein) were expressed for four hours in BL21 E. coli following induction with 1 mM isopropyl β-D-1-thiogalactopyranoside. E. coli were pelleted and resuspended in a buffer containing 50 mM Tris, 25% (w/v) sucrose, 1 mM EDTA, 10 mM DTT pH 8.0. Inclusion body protein was then extracted by lysis of bacteria in a buffer containing 50 mM Tris pH 8.0, 1% (w/v) Triton X-100, 1% (w/v) sodium deoxycholate, 100 mM NaCl, 10 mM DTT, 5 mM MgCl2, and 1 mg DnaseI per liter of starting culture; and subsequent steps involved homogenization with a polytron homogenizer, centrifugation, and washing inclusion body protein sequentially with firstly a buffer containing 50 mM Tris pH 8, […], 100 mM NaCl, 1 mM EDTA, 1 mM DTT, and secondly a buffer containing 50 mM Tris pH 8.0, 1 mM EDTA, 1 mM DTT. Inclusion body protein was then resuspended in a buffer containing 20 mM Tris pH 8.0, 8 M urea, 0.5 mM EDTA, 1 mM DTT, and following centrifugation the supernatant containing solubilized, denatured inclusion body protein was collected and stored at −80° C.
2 mg of 6-formyl pterin, 56 mg of denatured inclusion body MR1 protein, and 28 mg of β2m protein were added to a 400 ml refold buffer solution containing 0.1 M Tris pH 8.5, 2 mM EDTA, 0.4 M arginine, 0.5 mM oxidized glutathione, 5 mM reduced glutathione. Variably, 5M urea was either present or absent. Following an overnight incubation at 4° C., the refold buffer was dialysed against 3 changes of buffer containing 10 mM Tris, pH8.0 over a period of 24 hours. Refolded MR1-β2m-ligand complex was then purified by sequential DEAE (GE Healthcare) anion exchange, S75 16/60 (GE Healthcare) gel filtration, and MonoQ (GE Healthcare) anion exchange chromatography.

[3] = Stability of synthesised MR1 Ags; assay type: physicochemical
Description: Compounds 6,7-dimethyl-8-D-ribityllumazine (1), 7-hydroxy-6-methyl-8-D-ribityllumazine (2) and a 2 electron reduced form (3) of 6-hydroxymethyl-8-D-ribityllumazine were synthesised by modifications (FIG. 64) to reported literature procedures (for review see Plaut et al 1974). Their purities were established using proton NMR spectra and reversed phase HPLC traces. In brief, D-ribitylamine (6) was produced in 55% yield from D-(−)-ribose via its oxime intermediate. Condensation with 4-chlorouracil (7) followed by nitrosation provided the key intermediate (9) in reasonable yield (27%). The diaminouracil (10) was unstable, and therefore it was generated in situ, immediately before use, by reduction of the nitroso group with sodium hydrosulfite. Condensation with the corresponding α,β-dicarbonyl reagents at the optimal pH under a nitrogen atmosphere in the dark gave the products 1 and 2 after purification by preparative HPLC. […] For dimethyl analogue 1, three equivalents of 2,3-butadione gave a much purer crude product than reported in the literature, in which 6.6 equivalents gave a significant amount of bis-adduct and made purification difficult. […] Thus prolonged reaction and work-up procedures were best avoided. In contrast, a large excess of sodium pyruvate (9-18 eq) was key for efficient production of the 7-hydroxy analogue. […]

Ability to refold MR1 into native MR1-β2m complex [2]: could be refolded with MR1
Stability [3]: unstable, particularly in solution
Structure (SMILES): Cc1nc2c(=O)[nH]c(=O)nc-2n(C[C@H](O)[C@H](O)[C@H](O)CO)c1C [Compound 1, 6,7-dimethyl-8-D-ribityllumazine]
Activation of Jurkat.MAIT cells (increase in surface CD69) [1]: activated
